The values below come from ChEMBL document CHEMBL1201862, “PubChem BioAssay data set” (2004).

Test systems include 786-0; DU-145; HCC 2998; HCT-116; HL-60; HOP-62; Hs-578T; K562; LOX IMVI; MDA-MB-435; NCI-H23; NCI-H460; OVCAR-3; RPMI-8226; RXF 393; SK-OV-3; SNB-75; UACC-62; MCF7; Malme-3M.
Common to all, as to assay: growth of human tumour cells (NCI), 48 h

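How tested: cells in 96-well plates exposed to compound for 48 hours at five concentrations. Abbreviation: GI50, concentration required for 50% inhibition of growth.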 Calls of active or inactive are those of the source. Cut-off read from the data, not from the text of the source: active = GI50 up to about 1.1 µM and inactive = higher. A value given as a limit tells only on which side of the number the result lay.

As for `COC(=O)c1ccccc1C1=C([N+](=O)[O-])C(c2cccc(Br)c2)C(C#N)=C(N)O1` (stereo unspecified), the GI50 in the assay on 786-0 was 25.6 µM (inactive); with DU-145, 32.3 µM (inactive); with HCC 2998 it was 26.3 µM (inactive); in the assay with HCT-116, 31.5 µM (inactive); in the assay with HL-60 it was 29 µM (inactive); in the assay on HOP-62, 33 µM (inactive). The GI50 is 18.3 µM (inactive) in the assay on Hs-578T; 19.9 µM (inactive) in the assay with K562; 19.4 µM (inactive) in the assay on LOX IMVI; 22.7 µM (inactive) in the assay with MDA-MB-435; 27.1 µM (inactive) in the assay with NCI-H23; 41.3 µM (inactive) in the assay on NCI-H460. Further, the GI50 was 20.7 µM (inactive) in the assay on OVCAR-3; 23.7 µM (inactive) in the assay on RPMI-8226; 18.3 µM (inactive) with RXF 393; > 100 µM (inactive) with SK-OV-3; 25.4 µM (inactive) in the assay with SNB-75; 21 µM (inactive) in the assay with UACC-62.

For `Cc1nnc2n1-c1ccccc1C(=S)N1CSCC21` (stereo unspecified), the GI50 in the assay with 786-0, in the assay with DU-145, in the assay with HCC 2998, in the assay on HCT-116, in the assay with HOP-62 and in the assay with Hs-578T was > 100 µM (inactive) in each case. For the same compound, the GI50 in the assay on K562, with LOX IMVI, with MCF7, with MDA-MB-435, with Malme-3M and in the assay on NCI-H460 was > 100 µM (inactive) throughout. Moreover, the GI50 with OVCAR-3, in the assay on RPMI-8226, with RXF 393, with SK-OV-3, in the assay on SNB-75 and in the assay with UACC-62 was > 100 µM (inactive) throughout.

For the compound `O=C(O)C/N=C(\C(=N\CC(=O)O)c1ccccc1)c1ccccc1`, the GI50 with 786-0, with DU-145, in the assay with HCC 2998, in the assay with HCT-116, with HOP-62 and in the assay with Hs-578T was > 100 µM (inactive) throughout. Also, the GI50 in the assay with K562, in the assay on LOX IMVI, in the assay on MCF7, in the assay on MDA-MB-435, with Malme-3M and in the assay on NCI-H23 was > 100 µM (inactive) in each case. Further, the GI50 with NCI-H460 is > 100 µM (inactive); in the assay with OVCAR-3 it was > 100 µM (inactive); with RPMI-8226, 85.7 µM (inactive); in the assay on RXF 393, > 100 µM (inactive); in the assay on SK-OV-3, > 100 µM (inactive); in the assay with SNB-75 it was > 100 µM (inactive). Also, in the assay on UACC-62, the GI50 is > 100 µM (inactive).

Consider `CSc1n[nH]c2[nH]nc(C)c12`, for which the GI50 with 786-0, in the assay with DU-145, in the assay with HCC 2998, with HCT-116, in the assay on HOP-62 and in the assay on Hs-578T was > 100 µM (inactive) in each case. Also, the GI50 with K562 is > 74 µM (inactive); in the assay with LOX IMVI, > 100 µM (inactive); with MCF7 it was > 100 µM (inactive); with MDA-MB-435, > 100 µM (inactive); in the assay with Malme-3M, > 100 µM (inactive); in the assay with NCI-H23, > 100 µM (inactive). Further, the GI50 in the assay with NCI-H460, in the assay on OVCAR-3, in the assay on RPMI-8226, in the assay with RXF 393, in the assay on SK-OV-3 and in the assay with SNB-75 was > 100 µM (inactive) throughout. In the assay with UACC-62, the GI50 was > 100 µM (inactive).

Turning to `Cn1c(=O)nc2n(CCO)ccnc-2c1=O`, the GI50 in the assay with 786-0 was > 100 µM (inactive); in the assay on DU-145 it was > 100 µM (inactive); with HCC 2998 it was > 100 µM (inactive); in the assay on HCT-116, > 100 µM (inactive); with HOP-62, > 100 µM (inactive); in the assay on Hs-578T, 91.4 µM (inactive). Moreover, the GI50 with K562, in the assay with LOX IMVI, with MCF7, in the assay on MDA-MB-435, in the assay on Malme-3M and with NCI-H23 was > 100 µM (inactive) each time. The GI50 in the assay with NCI-H460, in the assay with OVCAR-3, with RPMI-8226, in the assay on RXF 393, in the assay with SNB-75 and in the assay on UACC-62 was > 100 µM (inactive) each time.

In the case of `Cc1c(O)c(=O)ccn1CCc1c[nH]c2ccccc12`, the GI50 in the assay on 786-0 was 2.55 µM (inactive); in the assay on DU-145, 6.44 µM (inactive); in the assay on HCT-116, 6.61 µM (inactive); in the assay with HL-60, 19.4 µM (inactive); with HOP-62, 8.75 µM (inactive); in the assay on Hs-578T, 11.7 µM (inactive). The GI50 in the assay with K562 was 14.4 µM (inactive); in the assay with LOX IMVI, 0.0335 µM (active); in the assay on MCF7, 4.89 µM (inactive); in the assay on MDA-MB-435 it was 17.2 µM (inactive); with Malme-3M it was 18.2 µM (inactive); with NCI-H23, 20.5 µM (inactive). Also, the GI50 is 4.11 µM (inactive) with NCI-H460, 3.69 µM (inactive) in the assay on RPMI-8226 and 12.5 µM (inactive) in the assay on SK-OV-3.

With `O=C1c2ccccc2C(=O)N1n1c(Cc2ccc(Cl)cc2)n[nH]c1=O`, the GI50 with 786-0, in the assay on DU-145, in the assay on HCC 2998, in the assay with HCT-116, with HOP-62 and in the assay on Hs-578T was > 100 µM (inactive) in each case. The GI50 with K562, in the assay on LOX IMVI, in the assay on MCF7, in the assay with MDA-MB-435, in the assay with Malme-3M and in the assay with NCI-H23 was > 100 µM (inactive) in each case. Further, the GI50 in the assay on NCI-H460, in the assay with OVCAR-3, in the assay on SNB-75 and in the assay on UACC-62 was > 100 µM (inactive) each time.

Consider `O=C1C=CC2(C=C1)CCC(=O)O2`, for which the GI50 in the assay on 786-0 is 15 µM (inactive); with DU-145 it was 15.5 µM (inactive); in the assay on HCC 2998 it was 14.2 µM (inactive); with HCT-116 it was 14.8 µM (inactive); in the assay with HOP-62 it was 20.2 µM (inactive); in the assay with Hs-578T, 10.6 µM (inactive). In addition, the GI50 was 10.7 µM (inactive) in the assay with K562; 4.83 µM (inactive) in the assay on LOX IMVI; 13.4 µM (inactive) in the assay with MCF7; 15.5 µM (inactive) in the assay with MDA-MB-435; 5.58 µM (inactive) with Malme-3M; 14.2 µM (inactive) in the assay with NCI-H23. Besides, the GI50 with NCI-H460 is 14.3 µM (inactive); in the assay with OVCAR-3, 13.2 µM (inactive); in the assay with RPMI-8226, 5.89 µM (inactive); in the assay on RXF 393 it was 14.6 µM (inactive); in the assay on SNB-75 it was 19 µM (inactive); in the assay with UACC-62, 16.5 µM (inactive).
